Experimental data as given in US7335770B2, “Triazine compounds and their analogs, compositions, and methods” (Reddy U5 Therapeutics, Inc., priority 2004, dated 2008).
Like-named read-outs stand apart in the source and are kept apart here.

System: smooth muscle cells (SMC)
Test: anti-proliferation assay (perlecan)
Format: cell-based
Conditions: for activity in anti-proliferation assay (Perlecan), in words: using the same activity scale used in Table 3; for IC50: anti-proliferation assay (perlecan)
Procedure: The activity scale used in Table 3 as follows (numbers are inclusive): “+++” represents IC50 of less than about 3 μM; “++” represents IC50 of between about 3 and about 7 μM; and “+” represents IC50 of greater than about 7 μM. In addition, compounds, to include compositions thereof, encompassed within the scope of structures Ia-XXIVa, respectively, or listed in Tables 1A and 1E may be likewise employed in this embodiment and/or aspect of the present invention. Further, any hydrogen atoms that are required for any atom to attain its usual valence in a structure presented in Table 3, whether a carbon atom or a heteroatom, should be inferred if it is not specifically indicated.
In addition to the above compounds, the following compounds and compositions comprising these compounds are active in an anti-proliferation assay (Perlecan). These compounds and compositions comprising these compounds are, among other things, generally useful for treating cardiovascular disorders associated with proliferative activity. Specifically, these compounds include N^2-cycloheptyl-N^4-(3-fluoro-4-methoxyphenyl)-N^6-methyl-N^6-(1-methyl-piperidin-4-yl)-1,3,5-triazine-2,4,6-triamine, and N^2-cycloheptyl-N^4-methyl-N^4-(1-methyl-piperidin-4-yl)-N^6-naphthalen-2-yl-1,3,5-triazine-2,4,6-triamine.
Methods for identifying the activity and screening for one or more of these compounds or molecules that induce synthesis of proteoglycans such as HSPG (heparan sulfate proteoglycan) are taught in U.S. patent application Ser. No. 10/091,357, which is incorporated herein in its entirety. Assays of effects of compounds in vivo are also taught in the incorporated references and are known to those skilled in the art. In general, methods comprise the addition of such compounds to assays and measurement of HSPG synthesis including, but not limited to, the production of syndecans, glypicans and perlecans, for example, syndecans 1, 2 and 4; and glypican-1. Other assays that can be used to determine the activity of the compounds of the present invention include other methods for measuring the induction of perlecan synthesis. For example, in one assay, perlecan is induced in cells by certain inducers, and the response is measured. Compounds of the present invention are then added to a replicate assay and the effect on perlecan induction is determined. Using such methods, compounds are determined that can either inhibit perlecan, elevate induction of perlecan, or that have no effect at all. Those compounds that are effective as therapeutic agents can then be used in animals, humans or patients with cellular proliferation disease aspects, such as vascular-associated diseases or SMC proliferation pathologies.
Another assay for determining compounds having SMC effects comprises adding a composition suspected of affecting SMC proliferation to smooth muscle cells in growth medium or serum-free medium. The change in cell proliferation can be measured by methods known to those skilled in the art, such as incorporation of labeled nucleotides into dividing cells' DNA, and compared to the proliferation of cells which are not treated with the compound. Other measurements include directly determining levels of HSPG synthesis by measuring the amount or change in amount of HSPG such as with ELISA for HSPGs, and compared to the amount of HSPG synthesis in untreated cells. Other indirect or direct measurement are contemplated by the present invention and are known to those skilled in the art. For example, such methods include, but are not limited to, measurement of RNA levels, RT-PCR, Northern blotting, Western blotting promoter-based assays to identify compounds that affect one or more proteoglycans and assays for proteoglycan biological activity shown by recombinant proteins, partially purified proteins, or lysates from cells expressing proteoglycans in the presence or absence of compounds of interest.

[1] = class of IC50, read-out: Activity (note 1)
[2] = some cells print no unit, read-out: Avg IC-50

SMILES | activity in anti-proliferation assay (Perlecan), in words | IC50 [1] [µM] | IC50 [2] [µM]
CCN1CCCC1CNc1nc(Nc2ccc(OC)c(F)c2)nc(N2CCN(CC(=O)N3CCCC3)CC2)n1.Cl.Cl (stereo not shown) | high activity |  | 
COc1ccc(Nc2nc(NCCNC(=O)CCCCC3SCC4NC(=O)NC43)nc(NC3CCCCCC3)n2)cc1Cl (stereo not shown) | high activity |  | 
COc1ccc(Nc2nc(NC3CCCCCC3)nc(-c3c(O)ccc4ccccc34)n2)cc1Cl [1-[4-(3-Chloro-4-methoxy-phenylamino)-6-cycloheptylamino-[1,3,5]triazin-2-yl]-naphthalen-2-ol] | high activity |  | 
COc1ccc(Nc2nc(NC3CCCCCC3)nc(Oc3ccc(C(C)=O)cc3Cl)n2)cc1Cl [1-{3-Chloro-4-[4-(3-chloro-4-methoxy-phenylamino)-6-cycloheptylamino-[1,3,5]triazin-2-yloxy]-phenyl}-ethanone] | high activity |  | 
COc1ccc(Nc2nc(NC3CCCCCC3)nc(OC3CCCN(C(C)=O)C3)n2)cc1Cl (stereo not shown) [1-{3-[4-(3-Chloro-4-methoxy-phenylamino)-6-cycloheptylamino-[1,3,5]triazin-2-yloxy]-piperidin-1-yl}-ethanone] | high activity |  | 
COc1ccc(Nc2nc(NC3CCCCCC3)nc(Oc3ccc(C(C)=O)cc3)n2)cc1Cl [1-{4-[4-(3-Chloro-4-methoxy-phenylamino)-6-cycloheptylamino-[1,3,5]triazin-2-yloxy]-phenyl}-ethanone] | high activity |  | 
CCN1CCCC1CNc1nc(Nc2ccc(OC)c(F)c2)nc(N2CCN(CC(=O)N3CCCC3)CC2)n1 (stereo not shown) [2-{4-[4-[(1-Ethyl-pyrrolidin-2-ylmethyl)-amino]-6-(3-fluoro-4-methoxy-phenylamino)-[1,3,5]triazin-2-yl]-piperazin-1-yl}-1-pyrrolidin-1-yl-ethanone] | high activity |  | 
CCc1occc(=O)c1Oc1nc(Nc2ccc(OC)c(Cl)c2)nc(NC2CCCCCC2)n1 [3-[4-(3-Chloro-4-methoxy-phenylamino)-6-cycloheptylamino-[1,3,5]triazin-2-yloxy]-2-ethyl-pyran-4-one] | high activity |  | 
CCOC(=O)/C=C/c1ccc(Oc2nc(Nc3ccc(OC)c(Cl)c3)nc(NC3CCCCCC3)n2)cc1 [3-{4-[4-(3-Chloro-4-methoxy-phenylamino)-6-cycloheptylamino-[1,3,5]triazin-2-yloxy]-phenyl}-acrylic acid ethyl ester] | high activity |  | 
COc1ccc(Nc2nc(NC3CCCCCC3)nc(NC3CCN(C(=O)CCCCC4SCC5NC(=O)NC54)CC3)n2)cc1Cl (stereo not shown) [4-(5-{4-[4-(3-Chloro-4-methoxy-phenylamino)-6-cycloheptylamino-[1,3,5]triazin-2-ylamino]-piperidin-1-yl}-5-oxo-pentyl)-tetrahydro-thieno[3,4-d]imidazol-2-one] | high activity |  | 
COc1ccc(Nc2nc(NC3CCCCCC3)nc(-c3ccc(O)cc3O)n2)cc1Cl [4-[4-(3-Chloro-4-methoxy-phenylamino)-6-cycloheptylamino-[1,3,5]triazin-2-yl]-benzene-1,3-diol] | high activity |  | 
COc1ccc(Nc2nc(NC3CCCCCC3)nc(Oc3ccc(/C=N\O)cc3)n2)cc1Cl [4-[4-(3-Chloro-4-methoxy-phenylamino)-6-cycloheptylamino-[1,3,5]triazin-2-yloxy]-benzaldehyde oxime] | high activity |  | 
COc1ccc(Nc2nc(NC3CCCCCC3)nc(Oc3ccc(C=O)cc3)n2)cc1Cl [4-[4-(3-Chloro-4-methoxy-phenylamino)-6-cycloheptylamino-[1,3,5]triazin-2-yloxy]-benzaldehyde] | high activity |  | 
COc1ccc(Nc2nc(NC3CCCCCC3)nc(Oc3ccccc3C#CC(C)(C)O)n2)cc1Cl [4-{2-[4-(3-Chloro-4-methoxy-phenylamino)-6-cycloheptylamino-[1,3,5]triazin-2-yloxy]-phenyl}-2-methyl-but-3-yn-2-ol] | high activity |  | 
CCN1CCCC1CNc1nc(NC2CCCCCC2)nc(NC2CCC(O)CC2)n1 (stereo not shown) [4-{4-Cycloheptylamino-6-[(1-ethyl-pyrrolidin-2-ylmethyl)-amino]-[1,3,5]triazin-2-ylamino}-cyclohexanol] | high activity |  | 
COc1ccc(Nc2nc(NC3CCCCCC3)nc(Oc3ccc(C#CC(C)(C)O)cc3)n2)cc1Cl [4-{4-[4-(3-Chloro-4-methoxy-phenylamino)-6-cycloheptylamino-[1,3,5]triazin-2-yloxy]-phenyl}-2-methyl-but-3-yn-2-ol] | high activity |  | 
COc1ccc(Nc2nc(NC(C)C)nc(Oc3ccc(C#CC(C)(C)O)cc3)n2)cc1Cl [4-{4-[4-(3-Chloro-4-methoxy-phenylamino)-6-isopropylamino-[1,3,5]triazin-2-yloxy]-phenyl}-2-methyl-but-3-yn-2-ol] | high activity |  | 
COc1ccc(Nc2nc(NNC(=O)CCCCC3SCC4NC(=O)NC43)nc(NC3CCCCCC3)n2)cc1Cl (stereo not shown) [5-(2-Oxo-hexahydro-thieno[3,4-d]imidazol-4-yl)-pentanoic acid N′-[4-(3-chloro-4-methoxy-phenylamino)-6-cycloheptylamino-[1,3,5]triazin-2-yl]-hydrazide] | high activity |  | 
COc1ccc(Nc2nc(NCCCCCNC(=O)CCCCC3SCC4NC(=O)NC43)nc(NC3CCCCCC3)n2)cc1Cl (stereo not shown) [5-(2-Oxo-hexahydro-thieno[3,4-d]imidazol-4-yl)-pentanoic acid {5-[4-(3-chloro-4-methoxy-phenylamino)-6-cycloheptylamino-[1,3,5]triazin-2-ylamino]-pentyl}-amide] | high activity |  | 
COc1ccc(Nc2nc(NC3CCCCCC3)nc(Sc3ccccc3C(C)(C)C)n2)cc1Cl [6-(2-tert-Butyl-phenylsulfanyl)-N-(3-chloro-4-methoxy-phenyl)-N′-cycloheptyl-[1,3,5]triazine-2,4-diamine] | high activity |  | 
CCN1CCCC1CNc1nc(Cl)nc(Nc2ccc(OC)c(F)c2)n1 (stereo not shown) [6-Chloro-N-(1-ethyl-pyrrolidin-2-yl-methyl)-N′-(3-fluoro-4-meth-oxy-phenyl)-[1,3,5]triazine-2,4-di-amine] |  | 3 to 7 | 6.5
Clc1nc(Cl)nc(NC2CCCCCC2)n1 [Cycloheptyl-(4,6-dichloro-[1,3,5]tri-azin-2-yl)-amine] |  | 3 to 7 | 3.75
COc1ccc(Nc2nc(NCCN)nc(NC3CCCCCC3)n2)cc1Cl [N-(2-Amino-ethyl)-N′-(3-chloro-4-methoxy-phenyl)-N″-cycloheptyl-[1,3,5]triazine-2,4,6-triamine] | high activity |  | 
CCN1CCCC(Oc2nc(Nc3ccc(OC)c(Cl)c3)nc(NC3CCCCCC3)n2)C1 (stereo not shown) [N-(3-Chloro-4-methoxy-phenyl)-N′-cycloheptyl-6-(1-ethyl-piperidin-3-yloxy)-[1,3,5]triazine-2,4-diamine] | high activity |  | 
COc1ccc(Nc2nc(NC3CCCCCC3)nc(OC3CCN(C)CC3)n2)cc1Cl [N-(3-Chloro-4-methoxy-phenyl)-N′-cycloheptyl-6-(1-methyl-piperidin-4-yloxy)-[1,3,5]triazine-2,4-diamine] | high activity |  | 
COc1ccc(Nc2nc(NC3CCCCCC3)nc(OCC3CCCN3C)n2)cc1Cl (stereo not shown) [N-(3-Chloro-4-methoxy-phenyl)-N′-cycloheptyl-6-(1-methyl-pyrrolidin-2-ylmethoxy)-[1,3,5]triazine-2,4-diamine] | high activity |  | 
